What was measured:
[1] = tested on: Absolute Lymphocyte Count (ALC); test: multiple ascending dosing study (MAD study) in healthy subjects: decline of Absolute Lymphocyte Count; type: in vivo, human; conditions: 0.3 mg to 10 mg dose
Experimental: (§1) In another study in healthy subjects siponimod was administered in multiple doses, i.e. 0.3, 1, 2.5, 10 and 20 mg, over 28 days (multiple ascending dosing study, MAD study).
Amongst the various potential factors which may contribute to the reduction of inflammation, and which may therefore contribute to the efficacy of a treatment by siponimod, one important factor is the reduction of the Absolute Lymphocyte Count (ALC), being ALC known to play an important role in the inflammatory processes, including those in the brain. The exact mechanism by which an S1P receptor modulation may mitigate stroke pathophysiology is/still not fully elucidated and thus, besides the Absolute Lymphocyte Count related effect (ALC-related effect), other potential mechanisms may play a role.

[2] = randomized, placebo-controlled clinical study of siponimod in ischemic stroke, modified Rankin Scale; type: in vivo, human; conditions: two week treatment daily, 7 days i.v. with titration followed by 7 days p.o., 10 mg maintenance
Source text: The clinical study investigates the initial efficacy and safety of siponimod administered on top of standard-of-care compared to placebo in patients with ischemic stroke). This is a randomized, doubled-blinded, placebo-controlled, parallel group study of siponimod on top of standard-of-care for ischemic stroke, consisting of 3 epochs: Screening/Baseline, Treatment, and Follow-Up (see FIG. 1).
These patients continue to be followed for the remainder of the assessment schedule (Table 3). i.v. Dose Titration
The siponimod i.v. dosing regimen is as follows: • Day 1: 0.25 mg over 6 hours (×2), then 0.5 mg over 6 hours, then 0.75 mg over 6 hours for a total Day 1 dose of 1.75 mg • Day 2: 1.25 mg over 6 hours, then 2 mg over 6 hours, then 2.5 mg over 6 hours (×2) for a total Day 2 dose of 8.25 mg • Days 3 through Day 7: 2.5 mg over 6 hours (×4) for a total daily dose of 10 mg. • If patient can swallow then the administration from Day 8 to Day 14 is oral.
The modified Rankin Scale (mRS), is a widely-used, clinician-assessed instrument, and is considered the current standard assessment for stroke outcomes by most Health Authorities. It consists of 6 grades of disability, higher scores indicating more severe disability (0=asymptomatic, 6=dead).
The mRS score at 90 days after ischemic stroke is the primary endpoint for measuring siponimod efficacy in this study. […]

[3] = i.v. versus oral siponimod study in healthy subjects (absolute bioavailability): pharmacokinetics; type: in vivo, human
Experimental: (§2) A comparison of bradyarrhythmic effects (H R, AVB, SP) of a 1 mg oral dose from previous studies and a 1 mg/day i.v. dose infused over 24 h in healthy subjects supported the hypothesis that such effects are related to the slope of the concentration-time curve.
In said study with siponimod administered intravenously, PK and PD were determined. […] This finding was consistent with previous oral administrations of 0.25 mg (starting dose of the oral initial period dosing regimen). The results of this clinical study were the following:
(§3) The safety of the i.v. route in humans was supported by a local tolerance study in rabbit and cardiovascular safety studies in guinea pig, rat and rabbit using i.v. (bolus) route.

[4] = siponimod single dose study (SAD study) in healthy volunteers; type: in vivo; conditions: healthy subjects
[5] = half-life and brain penetration of siponimod; conditions: in vivo
Experimental: (§4) Siponimod is a second generation S1 P receptor modulator that reduces peripheral lymphocyte counts approximately 4-6 hours (h) after the first dose. […] Siponimod's mode of action is believed to include S1P1-mediated prevention of effector lymphocyte recirculation from lymphatic tissue to sites of inflammation, such as the central nervous system (CNS). In addition, there may be direct beneficial effects in the CNS mediated by S1P1 and/or S1P5. […] Thus, siponimod may display additional beneficial activities in the CNS.

[6] = tested on: Absolute Lymphocyte Count (ALC); test: i.v. versus oral siponimod study in healthy subjects: PD (ALC) effects; type: in vivo, human; conditions: i.v. 0.25 mg over 3 hour and 1 mg over 24 hours vs oral doses at same dose levels
Experimental: (§5) In said study with siponimod administered intravenously, PK and PD were determined. […] This finding was consistent with previous oral administrations of 0.25 mg (starting dose of the oral initial period dosing regimen).

[7] = multiple ascending dosing study (MAD study) in healthy subjects: adverse events; type: in vivo, human; conditions: 20 mg multiple dose over 28 days
Experimental: as §1

[8] = i.v. siponimod study in healthy subjects: cardiac safety; type: in vivo, human; conditions: i.v. 0.25 mg over 3 hours and 1 mg over 24 hours (4x0.25 mg/6 hours)
Experimental: as §2, §5

[9] = in vivo, iv
Source text: as §3

CYP2C9, CYP3A4 = conditions: humans; cited from earlier work
[10] = clinical study of siponimod pharmacokinetics in CYP2C9 poor metabolizers; type: in vivo, human; conditions: for AUC compared with reference AUC of extensive metabolizers (CYP2C9*1*1): poor metabolizers
Source text: In addition to the previously described benefits, the dosing regimen of the present disclosure has also the advantage to highly reduce the additional risks run by the CYP2C9 poor metabolizer.

[11] = tested on: peripheral lymphocyte counts; test: reduction and recovery of peripheral lymphocyte counts; type: in vivo
Experimental: as §4

[12] = phase II dose finding study in relapsing-remitting multiple sclerosis (CBAF312A2201), MRI brain lesion parameters; type: in vivo, human; conditions: RRMS patients
Experimental: In a phase II dose finding study of siponimod in patients with relapsing-remitting multiple sclerosis (CBAF312A2201) safety, tolerability and efficacy on magnetic resonance imaging (MRI) brain lesion parameters were evaluated. The dose response curve for the MRI-based efficacy of siponimod given orally once daily compared with placebo was determined.
The dose-response curve as defined by the primary endpoint, favored the upper part of this range, i.e. a dose in the range of siponimod 2 mg, since efficacy seemed to decrease with lower doses. Siponimod achieved positive results in a clinical trial for the treatment of RRMS patients (Selmaj et al., Lancet Neurol, 2013, 12, 756-767) and is currently being investigated in an ongoing phase III study (EXPAND) in patients with SPMS. The dose of 2 mg of siponimod was the chosen dose for this follow up phase III study.

[13] = multiple-dose titration clinical study in healthy subjects: daily chronotropic effects (heart rate); type: in vivo, human
Experimental: S1P receptor modulators, as mentioned above, are known to cause dose dependent transient decrease in heart rate within 2-3 hours of drug intake (Legangneux et al 2012, Hoch et al 2014). In order to evaluate on how to best mitigate the bradyarrhythmic risk of siponimod, a multiple-dose titration clinical study in healthy subjects was run.
The primary objective of this study was to measure the daily chronotropic effects of two siponimod dose-titration regimens (from 0.25 mg to 10 mg; Dose Titration (DT) 1# and 2#, respectively) compared to daily chronotropic effects of oral siponimod 10 mg (fixed dose, once daily) and placebo over 12 days. The heart rate (HR) changes have been compared between subjects exposed to 10 mg siponimod once daily (QD) with or without 2 different up-titration schemes. The titration scheme of this study was: • DT 1#: Day 1: 0.25 mg; Day 2: 0.25 mg; Day 3: 0.25 mg; Day 4: 0.5 mg; Day 5: 1.0 mg; Day 6: 2.0 mg; Day 7: 4.0 mg; Day 8: 8.0 mg and from Day 9 to Day 12: 10.0 mg daily. • DT 2#: Day 1: 0.25 mg; Day 2: 0.25 mg; Day 3: 0.5 mg; Day 4: 0.75 mg; Day 5: 1.25 mg; Day 6: 2.0 mg; Day 7: 3.0 mg; Day 8: 5.0 mg; from Day 9 to Day 12: 10.0 mg daily.
This effect was maintained until end of treatment on Day 12. […] It was then concluded that both titration regimens effectively attenuated the initial bradycardia observed on Day 1 of treatment with siponimod 10 mg daily fixed-dose.

Structure (SMILES): CCc1cc(/C(C)=N/OCc2ccc(C3CCCCC3)c(C(F)(F)F)c2)ccc1CN1CC(C(=O)O)C1 [siponimod, 1-{4-[(1E)-N-{[4-cyclohexyl-3-(trifluoromethyl)benzyl]oxy}ethanimidoyl]-2-ethylbenzyl}-3-azetidine carboxylic acid]
- acute ALC response on Day 1 of treatment [1]: dose-dependent decline of ALC
- global functioning measured by modified Rankin Scale (mRS) score on Day 90 after ischemic stroke, compared to placebo [2]: improved global functioning
- dose and time dependence of pharmacokinetics ([3]; human, in vivo): dose linear and time-independent pharmacokinetics
- bioavailability ([3]; human, in vivo, 0.25 mg, oral versus i.v., healthy subjects, read-out: oral bioavailability F %): 84%
- half-life ([3]; human, in vivo, other: oral and intravenous (range over both routes), oral and i.v. route, read-out: terminal T1/2): 27 to 33 h
- median i.v. Tmax ([3]; i.v. infusion over 3 hours and 24 hours): at the end of the 3 hour and 24 hour infusions
- geometric mean oral Cmax lower than mean i.v. Cmax ([3]; oral versus i.v.): ~48%
- safety and tolerability of the 25 mg single dose ([4]; 25 mg single dose): favorable safety and tolerability profile
- single maximum tolerated dose (single MTD) ([4]; single dose): 25 mg
- crossing of the blood brain barrier [5]: readily crosses the blood brain barrier
- magnitude of PD (ALC) effects % Emax, i.v. versus oral [6]: comparable to the effects after oral doses at the same dose levels
- adverse events at the maximum investigated multiple dose [7]: symptomatic bradycardia as the only relevant adverse event
- cardiac safety profile of i.v. infusions [8]: excellent cardiac safety profile
- cardiovascular effects in i.v. cardiovascular safety studies [9]: Cmax-related transient cardiovascular effects
- enzymes eliminating siponimod by metabolism (CYP2C9, CYP3A4): mainly by CYP2C9, followed by CYP3A4
- Cmax in poor versus extensive metabolizers ([10]; CYP2C9 poor metabolizers): only slightly greater
- Tmax in poor versus extensive metabolizers ([10]; CYP2C9 poor metabolizers): comparable in poor and extensive metabolizers
- AUC compared with reference AUC of extensive metabolizers (CYP2C9*1*1) ([10]; first value printed (first-named genotype CYP2C9*2*3)): approximately 2 fold
- AUC compared with reference AUC of extensive metabolizers (CYP2C9*1*1) ([10]; second value printed (second-named genotype)): ~4 fold
- time to reduction of peripheral lymphocyte counts after the first dose ([11]; after the first dose): 4 to 6 h
- recovery of the baseline lymphocyte counts ([11]; after treatment withdrawal): within a week after treatment withdrawal
- MRI-based efficacy and safety of the dose range ([12]; 1.25 mg to 2 mg dose range orally once daily): close to maximal efficacy, with a good safety profile
- MRI-based efficacy compared to 2 mg ([12]; 10 mg orally once daily): little additional efficacy compared to 2 mg
- safety profile ([12]; 10 mg orally once daily): worse safety profile
- reduction in heart rate vs. placebo ([13]; Day 1, either titration regimen): no statistically significant reduction in heart rate vs. placebo
- reduction in HR ([13]; Days 3 to 7, DT 1# and DT 2#): minor reductions in HR
- heart rates versus placebo ([13]; by Day 9 until Day 12, both titration regimens): comparable to placebo
- bradycardia or AV conduction effects ([13]; dose titration regimens DT 1# and DT 2#, 0.25 mg to 10 mg, 12 days, healthy subjects): Neither DT 1# nor DT 2# resulted in clinically significant bradycardia or AV conduction effects
- heart rates versus placebo ([13]; non-titration regimen, 10 mg fixed dose once daily): considerable separation from placebo throughout the study
- bradyarrhythmia at the starting dose ([13]; starting dose 0.25 mg of the DT regimens): not associated with bradyarrhythmia

— US20200316021A1, “Dosing Regimen of Siponimod” (NOVARTIS AG, priority 2017, published 2020)
